# “Also recorded” adds a separate entry of the source.
# Test system: microorganisms (e.g., bacteria, yeasts, fungi)
# Test: Targeting peptide binding to target microorganisms (Table 3)
# Conditions: microorganism(s) the targeting peptide binds, preferably 1x PBS
# [1] = binding in aqueous buffers depending on peptide solubility
# [2] = peptide binding conducted in aqueous buffers varied by peptide solubility
Substance,Target(s) [1],Target(s) [2]
PF-314 (ECLKKAIKSKALNKAFKIDVPDEVYDNLLMELEEYEK; Peptide with targeting and/or antimicrobial activity),S. mutans,
PF-317 (LILVSDI; Peptide with targeting and/or antimicrobial activity),S. mutans,
PF-320 (DSGYYALLENKEERVVWDGEVVANNIFNNLWIVVNKVKTG; Peptide with targeting and/or antimicrobial activity),S. mutans; also recorded: E. coli,
PF-323 (ARESIEKSHVPVDATIVGVVDSFEVFDE; Peptide with targeting and/or antimicrobial activity),S. mutans,
PF-324 (HFSLL; Peptide with targeting and/or antimicrobial activity),C. difficile,
PF-325 (LTIDEKLRNHR; Peptide with targeting and/or antimicrobial activity),S. mutans; also recorded: E. coli,
PF-326 (VIVGNLGAQKEKRNDTPISAKKDIMGDKTVRVRADLHH; Peptide with targeting and/or antimicrobial activity),S. mutans; also recorded: E. coli,
PF-328 (NGNEKAFSEVENLVK; Peptide with targeting and/or antimicrobial activity),S. mutans,
PF-329 (IGILFDKSVRKY; Peptide with targeting and/or antimicrobial activity),S. epidermidis,
PF-333 (YMTKKLVEMAEQQMAGKSNR; Peptide with targeting and/or antimicrobial activity),S. mutans,
PF-334 (QQYLILDRM; Peptide with targeting and/or antimicrobial activity),S. epidermidis; also recorded: C. difficile,
PF-337 (YMTKKLVEMAERQMAGK; Peptide with targeting and/or antimicrobial activity),S. epidermidis,
PF-338 (KGTSCPDQLSKAIRQSI; Peptide with targeting and/or antimicrobial activity),S. mutans,
PF-340 (VKDVLLELFNKIIGA; Peptide with targeting and/or antimicrobial activity),S. mutans; also recorded: E. coli,
PF-348 (ESASAAEWYNPNMNVKKAICMG; Peptide with targeting and/or antimicrobial activity),B. subtilis; also recorded: E. coli; also recorded: P. aeruginosa; also recorded: C. albicans; also recorded: E. faecalis; also recorded: C. jejuni,
PF-351 (YLFFKGKKVAEEEATKDEVKR; Peptide with targeting and/or antimicrobial activity),S. mutans,
PF-352 (RVKKIG; Peptide with targeting and/or antimicrobial activity),C. jeikeium,
PF-359 (MTVMEDPGSEQRNKIQSPMKGEDFSALFGR; Peptide with targeting and/or antimicrobial activity),S. epidermidis and B. fragilis and P. aeruginosa and C. albicans and MRSA and E. faecalis and C. jeikeium,
PF-361 (NQVTEGIRLLVE; Peptide with targeting and/or antimicrobial activity),S. epidermidis; also recorded: E. coli; also recorded: E. faecalis; also recorded: C. jejuni,
PF-364 (LVNGIKI; Peptide with targeting and/or antimicrobial activity),S. epidermidis; also recorded: B. fragilis; also recorded: P. aeruginosa; also recorded: C. jeikeium; also recorded: C. jejuni,
PF-365 (LYKQKIQLEEELEKLKDDRQ; Peptide with targeting and/or antimicrobial activity),S. epidermidis; also recorded: B. subtilis; also recorded: B. fragilis; also recorded: P. aeruginosa; also recorded: C. albicans,
PF-367 (TKTPGTFTPGTGIQKTAVPL; Peptide with targeting and/or antimicrobial activity),B. subtilis,
PF-368 (MLKQTA; Peptide with targeting and/or antimicrobial activity),C. jeikeium; also recorded: C. jejuni,
PF-371 (TFIYNEF; Peptide with targeting and/or antimicrobial activity),S. epidermidis; also recorded: B. fragilis; also recorded: C. jejuni,
PF-372 (KKQDKRIEDKYKRMKKGD; Peptide with targeting and/or antimicrobial activity),C. jeikeium; also recorded: C. jejuni,
PF-384 (HISKERFEAY; Peptide with targeting and/or antimicrobial activity),E. faecalis; also recorded: C. jeikeium; also recorded: C. jejuni,
PF-388 (ITPLLDEIGKVCIDKISK; Peptide with targeting and/or antimicrobial activity),,E. faecalis; also recorded: C. jeikeium; also recorded: C. jejuni

Substance,Target(s) [1],Target(s) [2]
PF-400 (VIAWKFRNKFENSGV; Peptide with targeting and/or antimicrobial activity),,S. epidermidis; also recorded: E. coli; also recorded: S. pneumoniae; also recorded: E. faecalis; also recorded: C. jeikeium
PF-402 (FIDVLKSKINEFLN; Peptide with targeting and/or antimicrobial activity),,S. epidermidis; also recorded: P. aeruginosa; also recorded: E. faecalis; also recorded: C. jejuni
PF-409 (DLVQSILSEFKKSG; Peptide with targeting and/or antimicrobial activity),,S. epidermidis and MRSA and C. jeikeium and C. jejuni
PF-412 (TSGWLGQLEQ; Peptide with targeting and/or antimicrobial activity),,M. luteus; also recorded: E. coli; also recorded: C. albicans; also recorded: C. jeikeium; also recorded: C. jejuni
PF-435 (MSRWDGHSDKGEAPAGKPPMHGFGLNGENK; Peptide with targeting and/or antimicrobial activity),,C. jeikeium
PF-436 (KKHVLVGKQEKNG; Peptide with targeting and/or antimicrobial activity),,C. jeikeium
PF-438 (QPYFQNQFKKITGYTPLQYRKEKR; Peptide with targeting and/or antimicrobial activity),,S. epidermidis; also recorded: E. coli; also recorded: S. pneumoniae; also recorded: C. jeikeium; also recorded: C. jejuni
PF-441 (TQVHKMARGIDPGPANGIYR; Peptide with targeting and/or antimicrobial activity),,C. jeikeium
PF-463 (MVILVFSLIFIFTDNYLVYQSKSIKEDVMI; Peptide with targeting and/or antimicrobial activity),,S. epidermidis; also recorded: E. coli; also recorded: P. aeruginosa; also recorded: C. albicans; also recorded: S. pneumoniae; also recorded: E. faecalis; also recorded: M. smegmatis
PF-481 (DELYEIMDKVIEEFNKDIEQNNNNGNNEDLTENKIN; Peptide with targeting and/or antimicrobial activity),,C. jeikeium
PF-483 (EDNKDKKDKKDK; Peptide with targeting and/or antimicrobial activity),,P. mirabilis; also recorded: C. jeikeium; also recorded: C. jejuni
PF-486 (MQKEGEEDY; Peptide with targeting and/or antimicrobial activity),,S. mutans
PF-487 (MYKAIAVLAMTIMAFFIFVYPFFIVGLILG; Peptide with targeting and/or antimicrobial activity),,S. mutans; also recorded: E. coli
PF-488 (YPNEQGHHKNNLKNIIIE; Peptide with targeting and/or antimicrobial activity),,S. mutans; also recorded: E. coli
PF-489 (KVDRVSTTITEKIK; Peptide with targeting and/or antimicrobial activity),,S. mutans
PF-490 (RLILVSGNATVQK; Peptide with targeting and/or antimicrobial activity),,S. mutans; also recorded: E. coli
PF-491 (IHQYSSKPDIVGQEAKTVQQINS; Peptide with targeting and/or antimicrobial activity),,S. mutans; also recorded: E. coli
PF-492 (IQIDAASFYSISKSTIK; Peptide with targeting and/or antimicrobial activity),,S. mutans; also recorded: B. subtilis; also recorded: E. coli
PF-493 (PGAFFFCRGRGCWCGIGW; Peptide with targeting and/or antimicrobial activity),,S. mutans; also recorded: B. subtilis; also recorded: E. coli
PF-494 (FTEPLRPLQAKGQIISIKPSTSSS; Peptide with targeting and/or antimicrobial activity),,S. mutans
PF-495 (KGIYKKRTY; Peptide with targeting and/or antimicrobial activity),,S. mutans; also recorded: E. coli
PF-496 (EVTKRLVALAQQQLRG; Peptide with targeting and/or antimicrobial activity),,S. mutans; also recorded: E. coli
PF-498 (MSEEEEVSEKVYNYLRRNEFFEVRKEEFSA; Peptide with targeting and/or antimicrobial activity),,S. mutans; also recorded: E. coli
PF-500 (MGIFKEEKIKFIDCKGEEVILKIKIKDIKK; Peptide with targeting and/or antimicrobial activity),,S. mutans; also recorded: E. coli
PF-501 (GSTAHKSPIGSTNNQWGMKKTPTD; Peptide with targeting and/or antimicrobial activity),,S. mutans
PF-502 (NKGKQMQDQTGKQPIVDNG; Peptide with targeting and/or antimicrobial activity),,S. mutans
PF-503 (VVTLKDIVAVIEDQGYDVQ; Peptide with targeting and/or antimicrobial activity),,S. mutans

# Source: patent US20110039762A1, “TARGETED ANTIMICROBIAL MOIETIES” (C3 JIAN, INC., priority 2009, published 2011)
